In US6861439B2, “Treatment of cerebrovascular disease” (Medicure International, Inc., priority 2000, dated 2005):

Experiments:
[1] = system: rat model of cerebral ischemia; assay: Rat model of cerebral ischemia: seizures, hemorrhage and mortality; settings: for mortality (number of animals): n=8/group, 2 in control group
[2] = system: rat model of cerebral ischemia; assay: Rat model of cerebral ischemia: measurement of infarct damage (TTC staining); format: in vivo, Male Wistar rats; settings: for Infarct Volume (mean): post-ischemia PLP iv, 24 hours after ischemia, control group 37.74%
Description: (§1) Male Wistar rats (250-300 g) were housed in the animal facility for a period of 12 days and given food and water ab libitum. Animals were randomly assigned to groups (n=8/group) of a) control group b) post-ischemia PLP treatment 10 mg/kg c) post-ischemia PLP treatment […] and d) post-ischemia PLP treatment 40 mg/kg.
(§2) The rats of each group were anaesthetized to surgical depth initially with 3% halothane, and maintained with 1.5% halothane in a 70% N2O/30% O2 (vol./vol.) mixture. Animal core temperature was maintained at approx 37° C. using a heating pad and an overhead lamp. Temperature was measured with a rectal thermometer.
(§3) A midline longitudinal incision of approx 2.0 cm was made in the cervical area. Both common carotid arteries (CCA) were dissected from the surrounding tissue and both the right internal carotid artery (ICA) and the right external carotid artery (ECA) were exposed to a maximal length. Branches of the right ECA will be occluded with electro-coagulation and the distal portion ligated. The right CCA and ICA were occluded by temporary clamping, after which the distal end of the ECA was cut to allow catheter insertion. A loose 5.0 silk suture was tied around the proximal right ECA. A PE-50 catheter [Becton-Dickinson, N.J., USA] (0.3 mm O.D at the tip of the catheter and O.D. 0.97 in the catheter body) was attached to a […] filled with 0.5 ml bovine alpha-thrombin (Thrombostat, Parke-Davis).
(§4) The catheter was introduced into the ICA from the ECA and CCA via a small puncture and the silk suture tied around the ECA to prevent bleeding and dislodgement. This was followed by the removal of vascular clips from the ICA and CCA. 10 ul of blood was withdrawn into the catheter and kept in place for 15 minutes for formation of a thrombin clot. Subsequently 17 mm of the catheter (calculated from the puncture site) was gently advanced through the ECA and extra-cranial portion of the ICA to approximately 2 mm from the origin of the middle cerebral artery. After temporary occlusion of the CCAs bilaterally to slow blood flow, the clot was introduced into the ICA. The clip of the contralateral CCA was removed five minutes later and the catheter was removed 10 minutes after the clot introduction. The ipsilateral ICA was then ligated prior to the removal of the clip on the right CCA, 15 minutes after clot injection. The incision was then sutured and the animals allowed to recover from anesthesia whereupon they were given free access to food & water.
The infarcted brain tissue in the right MCA territory was differentiated using the 2,3,5-triphenyltetrazolium chloride (TTC) staining method. The rats were perfused transcardially with 120 ml 0.9% normal saline under deep anaesthesia, 24 hours after ischemia. The brain was then removed and cooled in ice-cold saline for 5 minutes after which it was dissected in the coronal plane at 2 mm intervals using a rat brain matrix and stored in 10% buffered formalin for fixing. The stained sections were colour scanned within seven days. The 2 mm thick coronal sections were placed directly on the scanning screen and scanned from rostral to caudal ends, with attention paid to soaking up formalin to prevent shadows, and the use of a black background.
Image contrast and brightness was adjusted with Photoshop 4.0; measurements were made by manually outlining the margins of infarct areas in each section. The total volume of infarction was determined by integrating the […] of the eight chosen sections. Values were corrected for any brain edema.
(§5) Control animals were given 3 mL saline (iv) at 2 hours following cerebral ischemia. The pre-ischemia treatment group was given PLP (10 mg/kg, iv in 3 mL) over 30 minutes 1 hour prior to ischemic insult. The post-ischemia groups received PLP at […] iv at 2 hours following cerebral ischemia.
All data was expressed as mean±SD. […]

[3] = in water, alcohol, and ether; cited from earlier work
[4] = system: rat model of cerebral ischemia; assay: Rat model of cerebral ischemia: neurological deficit evaluation (neurobehavioral scores); format: in vivo, Male Wistar rats; settings: scale 0-4, evaluation at 2 and 24 hours after thrombus
Description: as §1, §2, §3, §4
Neurological deficit evaluation was conducted at 2 and 24 hours after injection of thrombus. The neurological findings were scored on a four-point grade scale: no observable deficit—0; forelimb flexion—1; forelimb flexion and decreased resistance to lateral push—2; forelimb flexion, decreased lateral push resistance and unilateral circling in three successive trials—3. A score of 4 was given to animals with a score of 3 plus decreased consciousness.
as §5
All data was expressed as mean±SD. Two-tailed paired Students t-tests were used to compare differences between values obtained before and after treatment. Statistical analysis of more than two groups of animals were performed with ANOVA, with subsequent individual comparisons by Scheffe's test. Differences were considered significant at […].

In the case of `Cc1ncc(COP(=O)(O)O)c(C=O)c1O` [PLP, 3-hydroxy-2-methyl-5-[(phosphonooxy)methyl]-4-pyridine-carboxaldehyde], the “mortality (number of animals)” value ([1]; 10 mg/kg group) is reported as 3, the “mortality (number of animals)” value ([1]; 20 mg/kg group) is reported as 1 and the “mortality (number of animals)” value ([1]; 40 mg/kg group) is reported as 0. The number of seizures ([1]; the three groups (10, 20, 40 mg/kg)) was “no difference”, the risk of hemorrhage ([1]; with higher doses) was “did not increase” and the “Infarct Volume (mean)” value ([2]; 10 mg/kg treatment group) was 28.25%,. The “Infarct Volume (mean)” value ([2]; 20 mg/kg treatment group) was 27.4%,, the “infarct reduction, statistical significance” value ([2]; 40 mg/kg dose) was “statistically significant” and the “Infarct Volume (mean)” value ([2]; 40 mg/kg treatment group) was 19.3%,. For the same compound, the “therapeutic effect on infarct size and neurobehavioral activity” value ([2]; 10, 20, 40 mg/kg) was “dose-dependant therapeutic effect”, the “anti-ischemic effect in the rat model of ischemia and reperfusion injury” value ([2]; overall conclusion) was “demonstrates anti-ischemic effects and benefits against ischemia reperfusion injury” and the solubility [3] was “essentially insoluble”. The “Neurobehavioral score, final (decreased to)” value ([4]; 10 mg/kg group) was 3, the “Neurobehavioral score, initial (decreased from)” value ([4]; 10 mg/kg group) was 3.6 and the “Neurobehavioral score, final (decreased to)” value ([4]; 20 mg/kg group) was 3. The “Neurobehavioral score, initial (decreased from)” value ([4]; 20 mg/kg group) was 3.8, the “Neurobehavioral score, final (decreased to)” value ([4]; 40 mg/kg group, p<0.001) was 1.9 and the “Neurobehavioral score, initial (decreased from)” value ([4]; 40 mg/kg group, p<0.001) was 3.8.
